Source: PubChem BioAssay (NCI)
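Method: 48-hour compound exposure of cells in 96-well plates, five concentrations, linear interpolation of endpoints. Here, GI50 denotes the concentration required for 50% inhibition of growth. TGI marks complete inhibition of growth.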

Tests used:
Assay in all cases: NCI-60 cell line screen, 48 h
ACHN renal = tested on: ACHN renal
HCC-2998 colon = tested on: HCC-2998 colon
KM12 colon = tested on: KM12 colon
M14 melanoma = tested on: M14 melanoma
MCF7 breast = tested on: MCF7 breast
OVCAR-4 ovarian = tested on: OVCAR-4 ovarian
OVCAR-5 ovarian = tested on: OVCAR-5 ovarian
RPMI-8226 leukemia = tested on: RPMI-8226 leukemia
SN12C renal = tested on: SN12C renal
UO-31 renal = tested on: UO-31 renal

| SMILES | TGI (ACHN renal) [µM] | TGI (HCC-2998 colon) [µM] | TGI (KM12 colon) [µM] | TGI (M14 melanoma) [µM] | TGI (MCF7 breast) [µM] | TGI (OVCAR-4 ovarian) [µM] | TGI (OVCAR-5 ovarian) [µM] | TGI (RPMI-8226 leukemia) [µM] | TGI (SN12C renal) [µM] | TGI (UO-31 renal) [µM] | GI50 (ACHN renal) [µM] | GI50 (HCC-2998 colon) [µM] | GI50 (KM12 colon) [µM] | GI50 (M14 melanoma) [µM] | GI50 (MCF7 breast) [µM] | GI50 (OVCAR-4 ovarian) [µM] | GI50 (OVCAR-5 ovarian) [µM] | GI50 (RPMI-8226 leukemia) [µM] | GI50 (SN12C renal) [µM] | GI50 (UO-31 renal) [µM] |
| --- | --- | --- | --- | --- | --- | --- | --- | --- | --- | --- | --- | --- | --- | --- | --- | --- | --- | --- | --- | --- |
| O=C(CNc1ccccn1)Nn1cnc2ccc(S(=O)(=O)Nc3ccccn3)cc2c1=O | > 100 | > 100 | > 100 | > 100 | > 100 | > 100 | > 100 | > 100 | > 100 | > 100 | – | – | – | – | – | – | – | – | – | – |
| CC(C)/C=C1\CCC(CN(C)C)C1=O (stereo unspecified) | 12.5 | 19.1 | 4.65 | 5.52 | 1.8 | 30.8 | 15.3 | 2.36 | 16.3 | 16.5 | – | – | – | – | – | – | – | – | – | – |
| FC(F)(F)c1ccc(C2ON=C(c3ccccc3)N2C23CC4CC(CC(C4)C2)C3)cc1 (stereo unspecified) | > 10 | > 10 | > 10 | > 10 | > 10 | > 10 | > 10 | > 10 | > 10 | – | – | – | – | – | – | – | – | – | – | – |
| CC1=NN(c2nc(N)nc(NS(=O)(=O)c3cc(C)c(Cl)cc3S)n2)C(C)(C)C1 | > 10 | > 10 | > 10 | > 10 | > 10 | > 10 | > 10 | > 10 | > 10 | > 10 | – | – | – | – | – | – | – | – | – | – |
| CCOC1OC(CO)C(O)CC1n1ccc(=O)[nH]c1=O (stereo unspecified) | > 100 | > 100 | > 100 | > 100 | > 100 | > 100 | > 100 | > 100 | > 100 | > 100 | – | – | – | – | – | – | – | – | – | – |
| CCC(NC(C)c1ccccc1)C(=O)c1ccc(OCc2ccccc2)c(OCc2ccccc2)c1 (stereo unspecified) | > 100 | > 100 | > 100 | > 100 | > 100 | > 100 | > 100 | > 100 | > 100 | > 100 | – | – | – | – | – | – | – | – | – | – |
| Cc1cccc(C2ON=C(c3ccccc3)N2C23CC4CC(CC(C4)C2)C3)c1 (stereo unspecified) | > 10 | > 10 | > 10 | > 10 | > 10 | > 10 | > 10 | > 10 | > 10 | – | – | – | – | – | – | – | – | – | – | – |
| CCS(=O)C(=O)N(O)c1ccc(Cl)cc1 (stereo unspecified) | 55 | > 100 | 47.2 | 35.1 | 50.9 | > 100 | > 100 | 20.4 | 43 | 46.7 | – | – | – | – | – | – | – | – | – | – |
| O=C1N=C2SC=C(NC(=S)Nc3ccccc3)N2NC12c1ccccc1-c1ccccc12 | > 10 | > 10 | > 10 | > 10 | > 10 | > 10 | > 10 | > 10 | > 10 | > 10 | – | – | – | – | – | – | – | – | – | – |
| CC(C)[C@@H]1CC[C@@H](C)C[C@H]1OC(=O)c1c2n(c3ccccc13)C[C@H]1OC(C)(C)O[C@@H]21 | > 100 | > 100 | > 100 | > 100 | > 100 | > 100 | > 100 | > 100 | > 100 | > 100 | – | – | – | – | – | – | – | – | – | – |
| CCOC(=O)C(NC(=O)OCc1ccccc1)C(=O)O (stereo unspecified) | > 100 | > 100 | > 100 | > 100 | > 100 | > 100 | > 100 | > 100 | > 100 | > 100 | – | – | – | – | – | – | – | – | – | – |
| CCN(CC)CCCNc1c2c(Cl)cc(Cl)cc2nc2nc(=O)[nH]c(C)c12 | > 100 | 51 | 31.1 | 61.9 | 53.9 | > 100 | 50.6 | > 10 | > 100 | > 100 | – | – | – | – | – | – | – | – | – | – |
| CC(=O)CCCCn1c(=O)c2c(nc(Br)n2C)n(C)c1=O | > 100 | > 100 | > 100 | > 100 | > 100 | > 100 | > 100 | > 100 | > 100 | > 100 | – | – | – | – | – | – | – | – | – | – |
| COC1(CC[C@@H](C)COC2OC(CO)C(O)C(O)C2O)O[C@H]2C[C@H]3[C@@H]4CC=C5C[C@@H](OC6OC(CO)C(OC7OC(C)C(O)C(O)C7O)C(O)C6OC6OC(C)C(O)C(O)C6O)CC[C@]5(C)[C@H]4CC[C@]3(C)[C@H]2[C@@H]1C (stereo partly specified) | 13.9 | 8.5 | 2.65 | 8.42 | 12.9 | 6.72 | 10.5 | 13.7 | – | 5.2 | 6.24 | 2.97 | 1.01 | 1.58 | 3.74 | 2.44 | 1.91 | 3.83 | 2.87 | 1.69 |
| O=C1N/C(=N\N=C\c2ccccc2)C(c2ccccc2)O1 (stereo unspecified) | > 100 | > 100 | > 100 | > 100 | > 100 | > 100 | > 100 | > 100 | > 100 | 33.5 | – | – | – | – | – | – | – | – | – | – |
| CCc1n[nH]c(=O)n1CCCCCCCCn1c(CC)n[nH]c1=O | > 100 | > 100 | > 100 | > 100 | > 100 | > 100 | > 100 | > 100 | > 100 | > 100 | – | – | – | – | – | – | – | – | – | – |

| SMILES | TGI (ACHN renal) [µM] | TGI (HCC-2998 colon) [µM] | TGI (KM12 colon) [µM] | TGI (M14 melanoma) [µM] | TGI (MCF7 breast) [µM] | TGI (OVCAR-4 ovarian) [µM] | TGI (OVCAR-5 ovarian) [µM] | TGI (RPMI-8226 leukemia) [µM] | TGI (SN12C renal) [µM] | TGI (UO-31 renal) [µM] | GI50 (ACHN renal) [µM] | GI50 (HCC-2998 colon) [µM] | GI50 (KM12 colon) [µM] | GI50 (M14 melanoma) [µM] | GI50 (MCF7 breast) [µM] | GI50 (OVCAR-4 ovarian) [µM] | GI50 (OVCAR-5 ovarian) [µM] | GI50 (RPMI-8226 leukemia) [µM] | GI50 (SN12C renal) [µM] | GI50 (UO-31 renal) [µM] |
| --- | --- | --- | --- | --- | --- | --- | --- | --- | --- | --- | --- | --- | --- | --- | --- | --- | --- | --- | --- | --- |
| C=C1CC(C)(COc2ccc3c(C)c(Cl)c(=O)oc3c2)OC1=O (stereo unspecified) | 11.4 | 4.27 | 14.5 | 3.65 | 3.15 | 10.4 | 13.4 | 1.83 | 18.9 | 9.63 | – | – | – | – | – | – | – | – | – | – |
| O=C1Oc2ccccc2C1C/C(=N\Nc1ccccc1)c1ccccc1O (stereo unspecified) | > 100 | > 100 | 45.8 | > 100 | > 100 | > 100 | > 100 | 72.3 | > 100 | 77.6 | – | – | – | – | – | – | – | – | – | – |
| Cc1c(C)c2c(c(N)c1C#N)C(=O)N(O)C2=O | > 100 | > 100 | > 100 | > 100 | > 100 | > 100 | > 100 | > 100 | > 100 | > 100 | – | – | – | – | – | – | – | – | – | – |
| O=C(NCCN1CCCCC1)c1ccc(Br)cc1 | > 100 | > 100 | > 100 | > 100 | > 100 | > 100 | > 100 | > 100 | > 100 | > 100 | – | – | – | – | – | – | – | – | – | – |
| Nc1nc(NNc2cccc(F)c2)cc(=O)[nH]1 | > 100 | > 100 | 56.8 | > 100 | 89.1 | > 100 | > 100 | > 100 | > 100 | > 100 | – | – | – | – | – | – | – | – | – | – |
| CC1(C)C2CCC3CC(CCC#N)CCC3C21C#N (stereo unspecified) | > 100 | > 100 | > 100 | > 100 | > 100 | > 100 | > 100 | > 100 | > 100 | > 100 | – | – | – | – | – | – | – | – | – | – |
| COc1nc(N=P(c2ccccc2)(c2ccccc2)c2ccccc2)cc(=O)n1C | > 100 | > 100 | > 100 | > 100 | > 100 | > 100 | > 100 | > 100 | > 100 | > 100 | – | – | – | – | – | – | – | – | – | – |
| CCCCOCCOCCOC1=CC(=O)c2c(O)ccc(O)c2C1=O | 3.2 | 3.25 | 3.3 | 2.85 | 4.01 | 3.4 | – | > 10 | 3.22 | 2.93 | – | – | – | – | – | – | – | – | – | – |
| CN(C)c1ccc(/C=C/C(=O)c2ccc(O)cc2)cc1 | 61.3 | 38.1 | > 100 | > 100 | > 100 | > 100 | > 100 | 22 | > 100 | > 100 | – | – | – | – | – | – | – | – | – | – |
| O=c1[nH]/c(=C/c2ccc3c(c2)OCO3)c(=O)[nH]/c1=C/c1ccc2c(c1)OCO2 | > 10 | > 10 | > 10 | > 10 | > 10 | > 10 | > 10 | > 10 | > 10 | > 10 | – | – | – | – | – | – | – | – | – | – |
| COc1ccc(C(O)/C(=N/N)c2nc3ccc(Cl)cc3[nH]c2=O)cc1 (stereo unspecified) | > 100 | > 100 | > 100 | > 100 | > 100 | > 100 | > 100 | > 100 | > 100 | > 100 | – | – | – | – | – | – | – | – | – | – |
| CNC(=O)c1n[nH]n(C2CCCCC2)c1=S | > 100 | > 100 | > 100 | > 100 | > 100 | > 100 | > 100 | > 100 | > 100 | > 100 | – | – | – | – | – | – | – | – | – | – |
| Clc1ccc(Nc2nnc(CNc3ccc(-c4nnc(Nc5ccc(Cl)cc5)s4)cc3)s2)cc1 | > 100 | 48.9 | 36.6 | 58.4 | > 100 | > 100 | > 100 | > 100 | > 100 | 44.2 | – | – | – | – | – | – | – | – | – | – |
| CC1=NN=C(C)C1N=Nc1ccc2nc(C)[nH]c2c1 | > 76.8 | > 100 | > 100 | > 100 | > 100 | > 100 | > 100 | > 100 | > 100 | 77.5 | – | – | – | – | – | – | – | – | – | – |
| O=C1CCN2c3ccccc3[C@H]3Cc4cccc(c4[C@@H]2C3)CCO1 | > 100 | > 100 | > 100 | 49.1 | > 100 | > 100 | > 100 | > 100 | 37.4 | 76.4 | – | – | – | – | – | – | – | – | – | – |
| COc1ccc(/C=c2\c(=O)[nH]c3nc4ccccc4c(=O)n23)cc1 | > 100 | > 100 | > 100 | > 100 | > 100 | > 100 | > 100 | > 100 | > 100 | > 100 | – | – | – | – | – | – | – | – | – | – |
